Test results taken from PMC7343857, “New natural agonists of the transient receptor potential Ankyrin 1 (TRPA1) channel” (Scientific Reports, 2020).
Read-outs that look alike come from different tables or passages of the source.

Molecular target: T1, hTRPA1 (Homo sapiens, UniProt O75762)
T1 construct: gene TRPA1
Assay: ratiometric calcium imaging and whole-cell patch clamp in CHO cells with inducible hTRPA1; non-induced cells as control
Type: cell-based

T1 sequence (O75762 whole entry): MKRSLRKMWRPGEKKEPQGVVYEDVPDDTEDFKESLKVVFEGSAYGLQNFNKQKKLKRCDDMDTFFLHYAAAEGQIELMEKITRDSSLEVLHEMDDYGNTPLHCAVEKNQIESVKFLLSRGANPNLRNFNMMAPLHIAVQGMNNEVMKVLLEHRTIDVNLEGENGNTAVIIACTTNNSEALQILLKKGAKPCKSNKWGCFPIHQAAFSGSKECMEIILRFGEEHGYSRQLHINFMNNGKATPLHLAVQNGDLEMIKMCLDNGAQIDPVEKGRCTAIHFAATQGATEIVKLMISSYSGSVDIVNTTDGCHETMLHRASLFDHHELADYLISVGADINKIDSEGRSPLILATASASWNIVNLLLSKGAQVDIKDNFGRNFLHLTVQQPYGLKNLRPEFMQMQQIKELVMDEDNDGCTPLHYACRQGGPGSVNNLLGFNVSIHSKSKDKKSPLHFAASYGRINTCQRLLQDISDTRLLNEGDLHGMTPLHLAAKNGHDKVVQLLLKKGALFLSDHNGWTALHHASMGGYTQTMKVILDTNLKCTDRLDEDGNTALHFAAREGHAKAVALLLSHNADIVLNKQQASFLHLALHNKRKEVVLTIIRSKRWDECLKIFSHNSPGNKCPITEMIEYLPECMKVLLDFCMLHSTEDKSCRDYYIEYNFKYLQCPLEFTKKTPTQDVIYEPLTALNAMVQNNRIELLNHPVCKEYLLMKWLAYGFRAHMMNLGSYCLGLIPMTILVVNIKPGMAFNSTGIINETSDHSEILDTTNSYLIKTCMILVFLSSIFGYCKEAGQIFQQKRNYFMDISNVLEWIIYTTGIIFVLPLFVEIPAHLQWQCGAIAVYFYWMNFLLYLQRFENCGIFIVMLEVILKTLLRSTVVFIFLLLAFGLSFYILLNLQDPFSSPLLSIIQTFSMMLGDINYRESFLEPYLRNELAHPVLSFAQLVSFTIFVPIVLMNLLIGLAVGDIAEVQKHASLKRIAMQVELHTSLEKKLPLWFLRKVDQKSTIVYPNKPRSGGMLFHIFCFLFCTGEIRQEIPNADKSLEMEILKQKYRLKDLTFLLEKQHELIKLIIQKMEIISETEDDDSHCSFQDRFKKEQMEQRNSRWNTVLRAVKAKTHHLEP

Compound | EC50 (read-out: EC50) [µM] | EC50 [µM]
CC(C)c1ccc(C=O)cc1 [cuminaldehyde] | 720 | 
COc1ccc(C=O)cc1 [p-anisaldehyde] |  | 910
C/C=C(\C)C=O [tiglic aldehyde] | 1490 | 
